Data from patent publication US6660770B2, “Pesticidal activity of functionalized alkenes” (North Carolina State University, priority 1999, dated 2003).

Columns and labels:
[1] = system: Ornithodoros parkeri; assay: Repellent assay for ticks; format: in vivo; settings: ten ticks; for # ticks on acetone: control paper opposite the compound paper; for # ticks on compound: test paper saturated with 60 uL of 15 mg/ml test solution
Method: A repellent assay for ticks is carried out as follows: (1) Prepare 15 mg/ml test solution of test compound in 100% acetone in individual 500 uL bullet tubes. Prepare control solution (1 uL olive oil plus 100 uL 100 acetone). (2) prepare half circle test papers (radious =2.25 cm) from Whatman filter paper (# 2 qualitative). (3) Saturate test papers with 60 uL of 100% acetone, control, or test solution. Test papers are in individual sterile petri dishes during this process. (4) Allow test papers to air dry at room temperature for one hour. (5) Select and place ten ticks into separate sterile glass petri dishes. Allow ticks to acclimate to covered dishes for one hour. (6) Transfer one test paper treated with a test solution and one test paper treated with the control solution to each of separate sterile petri dish bottoms. On control included two test papers treated with acetone. A second control included two test papers treated with the control solution. (7) Place ten ticks in between the two test papers. Place the test arenas in a dark room at room temperature. (8) Record the location of ticks 15 minutes, 1 hour and 2 hours after being placed in the test arenas.

[2] = system: Mosquito larvae; assay: Mosquito larval mortality bioassay; format: in vivo; settings: mosquito larval mortality followed for three days in microtiter plates; compound dissolved in dimethylsulfoxide; Brewer's yeast
Method: Mosquito larval mortality was followed for three days in microtiter plates containing 160 μL sterile water, 1-4 μL of the test compound dissolved in dimethylsulfoxide, and 10 μL of 2% Brewer's yeast. Controls were run under the same conditions without the test compounds. Larval mortality in the controls was 3% for 1-3 μL dimethylsulfoxide, and up to 20% for 4 μL dimethylsulfoxide.

| SMILES | # ticks on acetone ([1]; 15 minutes) | # ticks on acetone ([1]; 1 hour) | # ticks on acetone ([1]; 2 hours) | Activity (LD50) [2] [mM] | other results |
| --- | --- | --- | --- | --- | --- |
| O=C(O)CC/C=C/CCC1CCCCC1 [Compound 172, E-7-(Cyclohexyl)hept-4-enoic Acid] | 8 | 10 | 10 |  | # ticks on compound ([1]; 15 minutes): 2 |
| O=C(O)CC/C=C/CCc1ccccc1 [E-7-Phenylhept-4-enoic acid] |  |  |  | <0.08 |  |
| O=C(O)CC/C=C/CCc1ccc(O)cc1 [E-7-(4-Hydroxyphenyl)hept-4-enoic acid, E-7-(4-hydroxyphenyl)hept-4-enoic acid] |  |  |  | 0.59 ± 0.03 |  |
| COc1ccc(CC/C=C/CCC(=O)O)cc1 [E-7-(4-Methoxyphenyl)hept-4-enoic acid] |  |  |  | 1.28 |  |
| O=C(O)CCCCCCc1ccccc1 [7-Phenylheptanoic acid] |  |  |  | 0.19 ± 0.02 |  |
| CCOC(=O)CC/C=C/CCC1CCCCC1 [Compound 218, Ethyl E-7-(Cyclohexyl)hept-4-enoate] | 10 | 10 | 10 |  |  |
| CCOC(=O)CC/C=C/CCc1ccc(-c2ccccc2)cc1 [Compound 221, Ethyl E-7-((4-phenyl)phenyl)hept-4-enoate] | 5 | 4 | 8 |  | # ticks on compound ([1]; 15 minutes): 5; # ticks on compound ([1]; 1 hour): 4; # ticks on compound ([1]; 2 hours): 2 |
